# Experimental data taken from patent US9365489B2, “Nitrooxy alkanoic acids and derivatives thereof in feed for reducing methane emission in ruminants, and/or to improve ruminant performance” (priority 2009, dated 2016).
# What was measured:
# [1] = test system: methanogenesis in rumen liquor; assay: In vitro test for methane production (modified Hohenheim Forage value Test); conditions: 8 h, 39° C., average of two experiments, vs control
# Procedure: A modified version of the “Hohenheim Forage value Test (HFT)” was used for testing the effect of specific compounds on the rumen functions mimicked by this in-vitro system.
# Feed is given into a syringe with a composition of rumen liquor and an appropriate mixture of buffers. The solution is incubated at 39° C. After 8 hours the quantity (and composition) of methane produced is measured and put into a formula for conversion.
# • 6.2 g potassium dihydrogen phosphate (KH2PO4) • 0.6 g magnesium sulfate heptahydrate (MgSO4*7H2O) • 9 ml concentrated phosphoric acid (1 mol/l) • dissolved in distilled water to 1 l (pH about 1.6) Buffer Solution: • 35.0 g sodium hydrogen carbonate (NaHCO3) • 4.0 g ammonium hydrogen carbonate ((NH4)HCO3) • dissolved in distilled water to 1 l Trace Element Solution: • 13.2 g calcium chloride dihydrate (CaCl2*2H2O) • 10.0 g manganese(II) chloride tetrahydrate (MnCl2*4H2O) • 1.0 g cobalt(II) chloride hexahydrate (CoCl2*6H2O) • 8.0 g iron(III) chloride (FeCl3*6H2O) • dissolved in distilled water to 100 ml Sodium Salt Solution: • 100 mg sodium salt • dissolved in distilled water to 100 ml Reduction Solution: • first 3 ml sodium hydroxide (c=1 mol/l), then 427.5 mg sodium sulfide hydrate (Na2S*H2O) are added to 71.25 ml H2O • solution must be prepared shortly before it is added to the medium solution Procedure: Sample Weighing: • The feed stuff is sieved to 1 mm—usually TMR (44% concentrate, 6% hay, 37% maize silage and 13% grass silage)—and weighed exactly into 64 syringes. 4 of these syringes are the substrate controls, which display the gas production without the effect of the tested compounds. 4 other syringes are positive control, in which bromoethane sulfonate has been added to 0.1 mM. When needed, 4 syringes contain a carrier control (if the test compounds need a carrier). The remaining syringes contain the test substances, by groups of 4 syringes. Preparation of the Medium Solution:
# The components are mixed in a Woulff bottle in following order: • 711 ml water • 0.18 ml trace element solution • 355.5 ml buffer solution • 355.5 ml mass element solution • The completed solution is warmed up to 39° C. followed by the addition of 1.83 ml sodium salt solution and the addition of reduction solution at 36° C. The rumen liquor is added, when the indicator turns colourless. Extraction of the Rumen Liquor: • 750 ml of rumen liquor are added to approximately 1,400 ml of medium solution under continued agitation and CO2-gassing. Filling the Syringes, Incubation and Determining Gas Volumes and VFA Values: • The diluted rumen fluid (24 ml) is added to the glass syringe. The syringes are then incubated for 8 hours at 39° C. under gentle agitation. After 8 hours, the volume of gas produced is measured, and the percentage of methane in the gas phase is determined by gas chromatography. Results
# The food fermented was artificial TMR (44% concentrate, 6% hay, 37% maize silage and 13% grass silage). The compounds produced as described in examples 3 to 20 were added to the fermentation syringes to a concentration of 2 to 0.01% of dry matter (DM).
# [2] = Stability of the isolated compound (1H NMR); assay type: physicochemical; conditions: for degradation on storage: after 1 week at room temperature, repurified compound; for degradation on drying (1H NMR): dried at 60° C. under reduced pressure for 18 hours
# Procedure: The final compound was dried at 60° C. under reduced pressure for 18 hours. […] The degraded compound was adsorbed on silica gel and purified by flash chromatography [Biotage®, dichloromethane/methanol 100/0→98/2 (15CV), 98/2 (4CV)] affording compound 3 as a light yellow liquid (0.59 g, yield=33%).
# The final compound was dried at 60° C. under reduced pressure for 18 hours. […] The degraded compound was adsorbed on silica gel and purified by flash chromatography [Biotage®, dichloromethane/methanol 100/0→98/2 (12CV), 98/2 (6CV)] affording compound 3 as a white solid (0.90 g, yield=70%).
structure (smiles),measurement,setting,value
CC(C)(CO[N+](=O)[O-])C(=O)O,effect on methanogenesis (%),[1]; 0.5% DM,−49%
same,effect on methanogenesis (%),[1]; 2% DM,−100%
CCOC(=O)CC(C)O[N+](=O)[O-] (stereo not shown),effect on methanogenesis (%),[1]; 0.05% DM,−17%
same,effect on methanogenesis (%),[1]; 0.5% DM,−100%
same,effect on methanogenesis (%),[1]; 2% DM,−100%
COC(=O)CCO[N+](=O)[O-],effect on methanogenesis (%),[1]; 0.01% DM,−12%
same,effect on methanogenesis (%),[1]; 0.05% DM,−64%
same,effect on methanogenesis (%),[1]; 0.5% DM,−100%
same,effect on methanogenesis (%),[1]; 2% DM,−100%
CCOC(=O)C1CCC(O[N+](=O)[O-])CC1 (stereo not shown),effect on methanogenesis (%),[1]; 0.05% DM,−2%
same,effect on methanogenesis (%),[1]; 0.1% DM,−88%
same,effect on methanogenesis (%),[1]; 1% DM,−98%
CCOC(=O)CCCCCCCCCCO[N+](=O)[O-],effect on methanogenesis (%),[1]; 0.01% DM,−8%
same,effect on methanogenesis (%),[1]; 0.05% DM,−48%
same,effect on methanogenesis (%),[1]; 0.1% DM,−99%
O=C(O)CCCO[N+](=O)[O-],effect on methanogenesis (%),[1]; 2% DM,2%
CCOC(=O)CCO[N+](=O)[O-] [drawing 19],effect on methanogenesis (%),[1]; 0.05% DM,−18%
same,effect on methanogenesis (%),[1]; 0.1% DM,−63%
same,effect on methanogenesis (%),[1]; 0.25% DM,−100%
same,effect on methanogenesis (%),[1]; 0.5% DM,−100%
same,effect on methanogenesis (%),[1]; 1% DM,−100%
same,effect on methanogenesis (%),[1]; 2% DM,−100%
O=C(O)CCCCCO[N+](=O)[O-],effect on methanogenesis (%),[1]; 0.01% DM,−10%
same,effect on methanogenesis (%),[1]; 0.05% DM,−99%
same,effect on methanogenesis (%),[1]; 0.1% DM,−100%
CCOC(=O)CCCO[N+](=O)[O-],effect on methanogenesis (%),[1]; 0.01% DM,−6%
same,effect on methanogenesis (%),[1]; 0.05% DM,−55%
same,effect on methanogenesis (%),[1]; 0.1% DM,−82%
same,effect on methanogenesis (%),[1]; 0.5% DM,−100%
same,effect on methanogenesis (%),[1]; 2% DM,−100%
CCOC(=O)CCCCCCCO[N+](=O)[O-],effect on methanogenesis (%),[1]; 0.01% DM,−12%
same,effect on methanogenesis (%),[1]; 0.05% DM,−96%
same,effect on methanogenesis (%),[1]; 0.1% DM,−99%
O=C(O)CCCCO[N+](=O)[O-],effect on methanogenesis (%),[1]; 0.01% DM,−23%
same,effect on methanogenesis (%),[1]; 0.05% DM,−100%
same,effect on methanogenesis (%),[1]; 0.1% DM,−100%
same,effect on methanogenesis (%),[1]; 0.5% DM,−100%
same,effect on methanogenesis (%),[1]; 2% DM,−100%
NC(=O)CCCCO[N+](=O)[O-] [drawing 36],effect on methanogenesis (%),[1]; 0.01% DM,−2%
same,effect on methanogenesis (%),[1]; 0.1% DM,−99%
same,effect on methanogenesis (%),[1]; 1% DM,−98%
"O=[N+]([O-])[O-].[Na+] [Na NO3, reference compound]",effect on methanogenesis (%),[1]; 0.5% DM,−2%
same,effect on methanogenesis (%),[1]; 2% DM,−23%
"CNC(=O)CCCCO[N+](=O)[O-] [Example 18, 5-Nitrooxy-pentanoic acid methylamide]",degradation on storage,[2],No further degradation was observed
same,degradation on drying (1H NMR),[2],Degradation was observed
O=C(O)CCO[N+](=O)[O-],effect on methanogenesis (%),[1]; 0.01% DM,−8%
same,effect on methanogenesis (%),[1]; 0.05% DM,−98%
same,effect on methanogenesis (%),[1]; 0.1% DM,−100%
same,effect on methanogenesis (%),[1]; 0.5% DM,−100%
same,effect on methanogenesis (%),[1]; 2% DM,−100%
CNC(=O)CCCCO[N+](=O)[O-] [drawing 37],effect on methanogenesis (%),[1]; 0.01% DM,−2%
same,effect on methanogenesis (%),[1]; 0.1% DM,−100%
same,effect on methanogenesis (%),[1]; 1% DM,−98%
CCOC(=O)CCCCCO[N+](=O)[O-],effect on methanogenesis (%),[1]; 0.01% DM,−3%
same,effect on methanogenesis (%),[1]; 0.05% DM,−78%
same,effect on methanogenesis (%),[1]; 0.1% DM,−100%
CCOC(=O)C(C)O[N+](=O)[O-] (stereo not shown),effect on methanogenesis (%),[1]; 0.05% DM,−2%
same,effect on methanogenesis (%),[1]; 0.5% DM,−33%
same,effect on methanogenesis (%),[1]; 2% DM,−100%
O=C(O)CCCCCCCCCCO[N+](=O)[O-],effect on methanogenesis (%),[1]; 0.01% DM,−13%
same,effect on methanogenesis (%),[1]; 0.05% DM,−52%
same,effect on methanogenesis (%),[1]; 0.1% DM,−99%
CCOC(=O)CO[N+](=O)[O-],effect on methanogenesis (%),[1]; 0.05% DM,−1%
same,effect on methanogenesis (%),[1]; 0.1% DM,−1%
"NC(=O)CCCCO[N+](=O)[O-] [Example 20, 5-Nitrooxy-pentanoic acid amide]",degradation on storage,[2],No further degradation was observed
same,degradation on drying (1H NMR),[2],Degradation was observed
O=C(O)CCCCCCCO[N+](=O)[O-],effect on methanogenesis (%),[1]; 0.01% DM,−7%
same,effect on methanogenesis (%),[1]; 0.05% DM,−76%
same,effect on methanogenesis (%),[1]; 0.1% DM,−100%
CCOC(=O)CCCCO[N+](=O)[O-],effect on methanogenesis (%),[1]; 0.01% DM,−28%
same,effect on methanogenesis (%),[1]; 0.05% DM,−87%
same,effect on methanogenesis (%),[1]; 0.5% DM,−100%
same,effect on methanogenesis (%),[1]; 2% DM,−100%
